According to ChEMBL document CHEMBL1158103, “Theopapuamide, a cyclic depsipeptide from a Papua New Guinea lithistid sponge Theonella swinhoei” (J Nat Prod, 2006):
pEC50: −log10 of the molar value.

Experiments:
[1] = Cytotoxicity against human HCT 116 cells after 48 hrs by MTT assay; type: functional, cell-based; settings: HCT-116, 48 h
[2] = Cytotoxicity against human CEM-TART cells after 72 hrs by MTT assay; type: cell-based

## CCC(C)CC(C)C(O)C(C)C(=O)N[C@H](CN)C(=O)NC(C(O)C(O)C(=O)N[C@H](C(=O)N[C@H]1C(=O)N[C@H]([C@@H](C)O)C(=O)N[C@H](CCCN)C(=O)N[C@@H](CC(C)C)C(=O)N(C)[C@@H](CCC(N)=O)C(=O)N[C@@H]([C@@H](OC)C(N)=O)C(=O)N[C@H](CC(N)=O)C(=O)N(C)[C@@H](CC(C)C)C(=O)O[C@@H]1C)[C@H](C)C(C)C(N)=O)C(C)(C)O (some centres not stated) [THEOPAPUAMIDE]
[1]
  pEC50: 6.05
[2]
  pEC50: 6.30
